Measured values: US20080095720A1, “Skin Benefit Compositions with a Vanilloid Receptor Antagonist” (CONOPCO, INC., D/B/A UNILEVER, priority 2006, published 2008)

Biological target: T1, vanilloid receptor TRP-V1, VR-1 (Homo sapiens, UniProt Q8NER1)
T1 construct: endogenous in cells; host or cells: HaCaT keratinocytes
Experiment: Interleukin-1α production in HaCaT keratinocytes treated with capsaicin with or without capsazepine
Type: cell-based
Experimental: Keratinocyte cell lines (HaCaT) were treated with about 1 μM capsaicin (an agonist of vanilloid receptor TRP-V1, VR-1). […] Antagonists of TRP-V1 are thereby expected to be a route to reduce inflammation in the skin when the same is subjected to an irritant.

T1 sequence (Q8NER1 whole entry): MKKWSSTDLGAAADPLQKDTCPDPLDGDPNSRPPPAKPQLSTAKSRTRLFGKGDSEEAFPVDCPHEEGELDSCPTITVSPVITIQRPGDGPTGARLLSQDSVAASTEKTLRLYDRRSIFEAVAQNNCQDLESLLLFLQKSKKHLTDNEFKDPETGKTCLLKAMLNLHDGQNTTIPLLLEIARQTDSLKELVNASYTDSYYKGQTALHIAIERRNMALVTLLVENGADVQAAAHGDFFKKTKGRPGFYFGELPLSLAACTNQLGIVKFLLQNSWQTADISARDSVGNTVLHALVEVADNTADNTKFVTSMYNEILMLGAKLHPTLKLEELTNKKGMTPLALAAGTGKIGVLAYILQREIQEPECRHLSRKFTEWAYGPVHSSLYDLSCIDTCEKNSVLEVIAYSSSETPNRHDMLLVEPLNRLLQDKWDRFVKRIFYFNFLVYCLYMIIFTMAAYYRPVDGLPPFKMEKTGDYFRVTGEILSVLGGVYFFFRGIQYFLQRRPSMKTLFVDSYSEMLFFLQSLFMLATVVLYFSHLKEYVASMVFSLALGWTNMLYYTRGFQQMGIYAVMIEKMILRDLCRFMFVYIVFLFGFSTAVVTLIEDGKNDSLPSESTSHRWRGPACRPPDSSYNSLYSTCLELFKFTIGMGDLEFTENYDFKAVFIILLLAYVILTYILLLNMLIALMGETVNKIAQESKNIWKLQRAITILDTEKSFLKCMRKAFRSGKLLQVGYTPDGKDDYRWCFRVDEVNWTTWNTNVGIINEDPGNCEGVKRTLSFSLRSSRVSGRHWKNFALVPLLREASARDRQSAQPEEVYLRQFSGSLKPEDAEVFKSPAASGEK

interleukin-1α increase in response to capsaicin (HaCaT keratinocytes, capsaicin (1 μM) in the presence of about 3 μM capsazepine) | interleukin-1α levels (HaCaT keratinocytes, capsazepine alone) | production of interleukin-1α (HaCaT keratinocyte cell lines, about 1 μM capsaicin, p<0.001) | SMILES
blocked the interleukin-1α increase | no effect |  | Oc1cc2c(cc1O)CN(C(=S)NCCc1ccc(Cl)cc1)CCC2 [capsazepine]
 |  | significant increase | COc1cc(CNC(=O)CCCC/C=C/C(C)C)ccc1O [capsaicin]
